Experimental data from patent US20120020876A1, “HEDGEHOG PATHWAY INHIBITORS” (priority 2009, published 2012).
Entries after “also recorded” stand apart in the source; their conditions may differ.

Experiments:
Type in all cases: in vivo, mouse
KPC pancreatic tumors = test: Monitoring of KPC pancreatic tumor volume by 3D high resolution ultrasonography; conditions: gemcitabine 100 mg/kg twice weekly, Compound A 40 ug/kg/day, or both
From the text: For survival studies, mice were enrolled following the detection of 5-10 mm diameter tumor by ultrasound. Tumors were quantified by 3D ultrasound twice weekly until endpoint. High resolution ultrasound (US) imaging of normal and diseased mouse pancreas using the Vevo 770 System with a 35 MHz RMV scanhead (Visual Sonics, Inc.). 3D images were produced using the 3D motor arm to collect serial images at 0.25 mm intervals through the thickness of the tumor. Tumors were outlined on each 2D image and reconstructed to quantify the 3D volume using the integrated Vevo 770 software package.

KPC tumors [1] = test: Proliferation of KPC tumors (phospho-histone H3 immunohistochemistry); conditions: 4 days or 8-12 days of treatment
Description: Tissues were fixed in 10% formalin solution for 24 hours and transferred to 70% ethanol. Tissues were paraffin embedded, sectioned and rehydrated. For CD31 IHC, sections were unmasked in 10 mM EDTA, pH 8.0 in a pressure cooker. For all other antibodies, sections were unmasked in 10 mM citric acid in a pressure cooker. Endogenous peroxidases were quenched in 3% H2O2/PBS for 20 minutes. Remaining steps were carried out with Vectastain ABC kits appropriate to the species of primary antibody (Vector Labs, Burlingame, Calif.) with the following modification: blocking serum was supplemented with Protein Blocking Agent (Immunotech/BeckmanCoulter, Fullerton, Calif.) diluted 1:50. Antigens were developed with DAB Peroxidase Substrate (Vector Labs). The following antibody dilutions were used: Phospho-Histone H3, 1:100 (#9701, Cell Signaling Technology); Cleaved Caspase 3, 1:100 (#9661, Cell Signaling Technology); CD31, 1:75 (SC-1506). Slides were counterstained with hematoxylin.

KPC tumors [2] = test: Histology (H&E) of treated KPC tumors; conditions: KPC tumors after 8-12 days of treatment
KPC tumor blood vessels = test: Vessel patency: lectin perfusion with CD31 staining in KPC tumors; conditions: KPC mice treated 10 days; vs untreated or gemcitabine tumors
Description: (§1) To assess the functional vasculature, biotin-conjugated Lycopersicon esculentum lectin (B1175-1 mg, Vector Laboratories) was resuspended in 425 μL PBS and mixed with 75 μL of 1 mg/mL Streptavidin-AlexaFluor 633 (S21375, Molecular Probes) (in sterile PBS). Prior to use, the lectin-avidin mixture was centrifuged 14,000 k on a microfuge for 10 minutes to remove any particulate. Fifteen minutes prior to euthanasia, 100 μl (0.4 mg total) of the conjugated lectin was administered as a slow intravenous infusion over 5 minutes, and the hemodynamics monitored closely to ensure that it was tolerated. For doxorubicin experiments, five minutes prior to euthanasia mice were also infused with a 20 mg/kg doxorubicin solution (D-1515.10 mg, in sterile saline, Sigma) over one minute.
While under terminal anesthesia, mice were perfused with 4% paraformaldehyde in PBS, pH 7.4. Perfused tissues were harvested, fixed overnight in 4% paraformaldehyde in PBS, pH 7.4 and transferred to 70% ethanol. Tissues were embedded in paraffin, sectioned, rehydrated, and counterstained with DAPI. The lectin labeling experiments were reproduced independently in a second laboratory (SRH, KI).
Mice were infused with 30 ml of 4% PFA pH 7.4 using a Harvard Apparatus PhD 2000 syringe pump at a rate of […]. […] Doxorubicin fluorescence was excited with a 488 nm laser, and emission was detected in a range from 520-620 nm. […]

[3] = 19F NMR of fluorinated gemcitabine metabolites in tissue; conditions: KPC tumors; 10 days of treatment; vs untreated tumors
Description: Mice were treated with indicated regiments for 12 days. […] Tissues were rapidly dissected and snap frozen in liquid nitrogen. Tissue specimens were maintained at −80° C. until subjected to nucleotide extraction. Samples were homogenized in a Qiagen TissueLyser with a 5 mm ball bearing for 2×6 minutes at 25 KHz, in the presence of 4 volumes of ice-cold acetonitrile (μL acetonitrile=4×[…] of tissue). An equal volume of water was added and then the sample was spun at 14,000 rpm for 10 minutes at 4° C. Supernatant was freeze dried, resuspended in 600 μL of D2O and transferred to a 5 mm standard NMR tube (Wilmad) for ^19F NMR analysis on a Bruker 600 MHZ (14.1T) Avance NMR spectrometer using a QNP probe. Acquisition parameters included a 1D pulse sequence of ^19F observation and inverse-gated ^1H decoupling, spectral sweep width of 177 ppm (100000 Hz), 4096 scans and 1.65 sec of repetition time. Total acquisition time for each sample was about 1 hr 55 min. Trichloro-fluoro-methane was used for ^19F NMR chemical shift calibrations. A broad hump observed in the baseline of ^19F NMR spectra was removed by application of Linear-prediction (LP) back projection to the time domain data by using 2000 (number of LP) coefficients and 128 back-prediction points prior to Fourier transformation and phase correction. […]

KPC tumors [4] = test: Doxorubicin delivery to treated KPC tumors (doxorubicin fluorescence, laser scanning cytometry); conditions: KPC tumors after 8-12 days of treatment; doxorubicin 20 mg/kg infused
Description: as §1, with “For doxorubicin experiments, five minutes prior to euthanasia mice were also infused with a 20 mg/kg doxorubicin solution (D-1515.10 mg, in sterile saline, Sigma) over one minute.” left out
Mice were perfused with 4% paraformaldehyde in PBS, pH 7.4, while under terminal anesthesia. […] Doxorubicin fluorescence was determined by quantitative imaging cytometry using the iCys Research Imaging Cytometer (CompuCyte, Cambridge, Mass.) with iNovator software (CompuCyte).
A scanning protocol for quantification was configured with two channels. Nuclear DAPI fluorescence was excited by the 405 nm diode laser and detected in the blue ([…]) channel and doxorubicin fluorescence was excited by the argon […] laser and detected in the orange ([…]) channel. The threshold in the DAPI channel was optimised to selectively contour individual cells allowing fluorescence measurement within the primary and peripheral nuclear contours. […]

For `CC1=C2C[C@H]3[C@@H](CC[C@@H]4C[C@H](NS(C)(=O)=O)CC[C@@]43C)[C@@H]2CC[C@@]2(C1)O[C@@H]1C[C@H](C)CN[C@H]1[C@H]2C.Cl` [Compound A], the “objective (ultrasonographic) response, responding mice/treated mice” value (KPC pancreatic tumors) was 2/10, the “proliferation of KPC tumors” value (KPC tumors [1]) was “little appreciable effect; also recorded: unchanged” and the “tumor stroma / histological pattern” value (KPC tumors [2]) was “dramatically altered histological patterns; also recorded: loss of cellular and acellular stroma”. The “vessel patency (percent of CD31 positive vessels perfused with lectin)” value (KPC tumor blood vessels) was “increased vessel patency”, the “concentration of gemcitabine metabolites in KPC tumor tissue” value [3] was “No difference” and the “doxorubicin delivery to tumor tissue (fluorescence per unit area)” value (KPC tumors [4]) was “evident but more variable; also recorded: increased content”.
